Test results reported in patent US20250051347A1, “BIFUNCTIONAL CHIMERIC HETEROCYCLIC COMPOUND AND USE THEREOF AS ANDROGEN RECEPTOR DEGRADER” (Hinova Pharmaceuticals, Inc., priority 2021, published 2025).

Molecular target: T1, androgen receptor (AR) splicing variant AR-v7 (Homo sapiens, UniProt P10275)
T1 construct: The degradation activity of compounds on AR-v7 in 22RV1 cells; host or cells: 22RV1 cells
T1 sequence (P10275 1-644 isoform P10275-3): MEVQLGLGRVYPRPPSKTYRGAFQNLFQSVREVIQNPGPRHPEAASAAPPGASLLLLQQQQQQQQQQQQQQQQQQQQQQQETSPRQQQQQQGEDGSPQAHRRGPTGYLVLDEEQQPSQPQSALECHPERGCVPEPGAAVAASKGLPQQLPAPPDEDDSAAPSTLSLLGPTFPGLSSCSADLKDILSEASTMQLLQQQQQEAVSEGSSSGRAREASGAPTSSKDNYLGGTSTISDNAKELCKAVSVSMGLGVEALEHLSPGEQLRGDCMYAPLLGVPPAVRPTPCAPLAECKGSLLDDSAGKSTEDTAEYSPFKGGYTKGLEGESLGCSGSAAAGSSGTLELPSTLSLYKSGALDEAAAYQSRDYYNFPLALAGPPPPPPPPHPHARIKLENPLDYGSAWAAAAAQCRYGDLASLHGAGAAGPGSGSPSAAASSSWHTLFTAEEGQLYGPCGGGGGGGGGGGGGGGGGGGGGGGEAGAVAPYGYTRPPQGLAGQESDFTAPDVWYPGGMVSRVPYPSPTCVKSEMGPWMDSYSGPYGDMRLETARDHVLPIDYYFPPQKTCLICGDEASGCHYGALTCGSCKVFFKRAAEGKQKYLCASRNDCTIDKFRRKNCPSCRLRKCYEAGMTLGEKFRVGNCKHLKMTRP
Assay: Degradation activity on androgen receptor splicing variant AR-v7 in 22RV1 cells (ELISA)
Format: cell-based
Settings: AR-v7 degradation in 22RV1 cells, 48 h, class symbols

Molecule | DC50 [nM]
CC(=O)Nc1nccc(COc2ccc(C(C)(C)c3ccc(OCCCCCCCCOCCCCNc4ccc5c(c4)C(=O)N(C4CCC(=O)NC4=O)C5=O)cc3)cc2)n1 (stereo not shown) [Example 26, N-(4-((4-(2-(4-((8-(4-((2-(2,6-dioxopiperidin-3-yl)-1,3-dioxoisoindolin-5-yl)amino)butoxy)octyl)oxy)phenyl)propan-2-yl)phenoxy)methyl)pyrimidin-2-yl)acetamide] | 1000 to 5000
Cc1nc(-c2ncc(Oc3ccc(C(C)(C)c4ccc(OC5CC(Nc6cc7c(cn6)C(=O)N(C6CCC(=O)NC6=O)C7=O)C5)cc4)cc3)cn2)no1 (stereo not shown) [Example 530, 2-(2,6-dioxopiperidin-3-yl)-6-((1r,3r)-3-(4-(2-(4-((2-(5-methyl-1,2,4-oxadiazol-3-yl)pyrimidin-5-yl)oxy)phenyl)propan-2-yl)phenoxy)cyclobutyl)amino)-1H-pyrrolo[3,4-c]pyridin-1,3(2H)-dione] | 101 to 1000
COC(=O)c1nccc(COc2ccc(C(C)(C)c3ccc(OCCCNc4ccc5c(c4)C(=O)N(C4CCC(=O)NC4=O)C5=O)cc3)cc2)n1 (stereo not shown) [Example 184] | 1000 to 5000
CC(C)(c1ccc(OCc2ccnc(N3CC4(COC4)C3)n2)cc1)c1ccc(OC[C@H]2CCCN2c2ccc3c(c2)C(=O)N(C2CCC(=O)NC2=O)C3=O)cc1 (stereo partly drawn) [Example 314, 5-((R)-2-((4-(2-(4-((2-(2-oxa-6-azaspiro[3.3]heptan-6-yl)pyrimidin-4-yl)methoxy)phenyl)propan-2-yl)phenoxy)methyl)pyrrolidin-1-yl)-2-(2,6-dioxopiperidin-3-yl)isoindolin-1,3-dione] | 1000 to 5000
CC(C)(c1ccc(OCCCCCOc2ccc3c(c2)C(=O)N(C2CCC(=O)NC2=O)C3=O)cc1)c1ccc(OCc2ccnc(NS(C)(=O)=O)n2)cc1 (stereo not shown) [Example 9, N-(4-((4-(2-(4-((5-((2-(2,6-dioxopiperidin-3-yl)-1,3-dioxoisoindolin-5-yl)oxy)pentyl)oxy)phenyl)propan-2-yl)phenoxy)methyl)pyrimidin-2-yl)methanesulfonamide] | 1000 to 5000
CC(C)(c1ccc(OCCNC(=O)c2ccc3c(c2)C(=O)N(C2CCC(=O)NC2=O)C3=O)cc1)c1ccc(OCc2ccnc(N3CC4(COC4)C3)n2)cc1 (stereo not shown) [Example 114, N-(2-(4-(2-(4-((2-(2-oxa-6-azaspiro[3.3]heptan-6-yl)pyrimidin-4-yl)methoxy)phenyl)propan-2-yl)phenoxy)ethyl)-2-(2,6-dioxopiperidin-3-yl)-1,3-dioxoisoindolin-5-carbonylamine] | 1000 to 5000
CC(=O)c1nccc(COc2ccc(C(C)(C)c3ccc(OC4CC5(CCN(c6ccc7c(c6)C(=O)N(C6CCC(=O)NC6=O)C7=O)CC5)C4)cc3)cc2)n1 (stereo not shown) [Example 489] | 1000 to 5000
CC(C)(c1ccc(OCCCCNc2cccc3c2C(=O)N(C2CCC(=O)NC2=O)C3=O)cc1)c1ccc(OCc2ccnc(NS(C)(=O)=O)n2)cc1 (stereo not shown) [Example 10, N-(4-((4-(2-(4-(4-((2-(2,6-dioxopiperidin-3-yl)-1,3-dioxoisoindolin-yl)amino)butoxy)phenyl)propan-2-yl)phenoxy)methyl)pyrimidin-2-yl)methanesulfonamide] | 1000 to 5000

The next lines start with the values.

DC50 [nM] | Molecule
1000 to 5000 | CC(C)(c1ccc(OCc2ccnc(N3CC4(COC4)C3)n2)cc1)c1ccc(OC2CCCC[C@H]2Nc2ccc3c(c2)C(=O)N(C2CCC(=O)NC2=O)C3=O)cc1 (stereo partly shown) [Example 152]
101 to 1000 | CC(C)(c1ccc(OCCCNc2cccc3c2C(=O)N(C2CCC(=O)NC2=O)C3=O)cc1)c1ccc(OCc2ccnc(N3CCC3)n2)cc1 (stereo not shown) [Example 554, 4-((3-(4-(2-(4-((2-(azetidin-1-yl)pyrimidin-4-yl)methoxy)phenyl)propan-2-yl)phenoxy)propyl)amino)-2-(2,6-dioxopiperidin-3-yl)isoindolin-1,3-dione]
101 to 1000 | CN(C(=O)c1ccc(C(C)(C)c2ccc(OCc3ccnc(N4CC5(COC5)C4)n3)cc2)cc1)C1CN(c2ccc3c(c2)C(=O)N(C2CCC(=O)NC2=O)C3=O)C1 (stereo not shown) [Example 508, 4-(2-(4-((2-(2-oxa-6-azaspiro[3.3]heptan-6-yl)pyrimidin-4-yl)methoxy)phenyl)propan-2-yl)-N-(1-(2-(2,6-dioxopiperidin-3-yl)-1,3-dioxoisoindolin-5-yl)azetidin-3-yl)-N-methylbenzamide]
11 to 100 | CC(C)(c1ccc(Oc2ncc(F)c(N3CC4(COC4)C3)n2)cc1)c1ccc(O[C@H]2C[C@@H](Nc3ccc4c(c3)C(=O)N(C3CCC(=O)NC3=O)C4=O)C2)cc1 (stereo partly shown) [Example 157]
11 to 100 | CC(O)c1cnc(Oc2ccc(C(C)(C)c3ccc(O[C@H]4C[C@@H](Nc5ccc6c(c5)C(=O)N(C5CCC(=O)NC5=O)C6=O)C4)cc3)cc2)cn1 (stereo partly shown) [Example 129]
11 to 100 | Cc1nccc(Oc2ccc(C(C)(C)c3ccc(O[C@H]4C[C@@H](Nc5ccc6c(c5)C(=O)N(C5CCC(=O)NC5=O)C6=O)C4)cc3)cc2)n1 (stereo partly shown) [Example 198]
11 to 100 | CC(C)(c1ccc(CNC2CN(c3ccc4c(c3)C(=O)N(C3CCC(=O)NC3=O)C4=O)C2)cc1)c1ccc(OCc2ccnc(N3CC4(COC4)C3)n2)cc1 (stereo not shown) [Example 509]
101 to 1000 | CC(=O)c1nccc(COc2ccc(C(C)(C)c3ccc(OC[C@@H]4CCCN4c4ccc5c(c4)C(=O)N(C4CCC(=O)NC4=O)C5=O)cc3)cc2)n1 (stereo partly drawn) [Example 145, 5-((S)-2-((4-(2-(4-((2-acetylpyrimidin-4-yl)methoxy)phenyl)propan-2-yl)phenoxy)methyl)pyrrolidin-1-yl)-2-(2,6-dioxopiperidin-3-yl)isoindolin-1,3-dione]
11 to 100 | Cc1nc(-c2ccnc(Oc3ccc(C(C)(C)c4ccc(O[C@H]5C[C@@H](Nc6ccc7c(c6)C(=O)N(C6CCC(=O)NC6=O)C7=O)C5)cc4)cc3)c2)no1 (stereo partly shown) [Example 481]
11 to 100 | CC(C)(c1ccc(OCc2cccc(C(=O)C3CC3)n2)cc1)c1ccc(O[C@H]2C[C@H](Nc3ccc4c(c3)C(=O)N(C3CCC(=O)NC3=O)C4=O)C2)cc1 (stereo partly drawn) [Example 117, 5-(((trans)-3-(4-(2-(4-((6-(cyclopropanecarbonyl)pyridin-2-yl)methoxy)phenyl)propan-2-yl)phenoxy)cyclobutyl)amino)-2-(2,6-dioxopiperidin-3-yl)isoindolin-1,3-dione]
11 to 100 | C[C@@H]1CN(c2nccc(COc3ccc(C(C)(C)c4ccc(O[C@H]5C[C@@H](Nc6ccc7c(c6)C(=O)N(C6CCC(=O)NC6=O)C7=O)C5)cc4)cc3)n2)[C@H](C)CN1 (stereo partly shown) [Example 408]
11 to 100 | CC(C)(c1ccc(OCc2ccnc(N3CCN(CCO)CC3)n2)cc1)c1ccc(O[C@H]2C[C@@H](Nc3ccc4c(c3)C(=O)N(C3CCC(=O)NC3=O)C4=O)C2)cc1 (stereo partly shown) [Example 241, 2-(2,6-dioxopiperidin-3-yl)-5-(((1s,3s)-3-(4-(2-(4-((2-(4-(2-hydroxylethyl)piperazin-1-yl)pyrimidin-4-yl)methoxy)phenyl)propan-2-yl)phenoxy)cyclobutyl)amino)isoindolin-1,3-dione]
101 to 1000 | CC(C)(c1ccc(OCc2ccnc(N3CC4(COC4)C3)n2)cc1)c1ccc(OC2CCC[C@@H](Nc3ccc4c(c3)C(=O)N(C3CCC(=O)NC3=O)C4=O)C2)cc1 (stereo in doubt) [Example 493, 5-((3-(4-(2-(4-((2-(2-oxa-6-azaspiro[3.3]heptan-6-yl)pyrimidin-4-yl)methoxy)phenyl)propan-2-yl)phenoxy)cyclohexyl)amino)-2-(2,6-dioxopiperidin-3-yl)isoindolin-1,3-dione]
11 to 100 | 5-(((1s,3s)-3-(4-(2-(4-((2-(2H-1,2,3-triazol-2-yl)pyrimidin-5-yl)oxy)phenyl)propan-2-yl)phenoxy)cyclobutyl)amino)-2-(2,6-dioxopiperidin-3-yl)isoindolin-1,3-dione [Example 482]
101 to 1000 | CC(C)(c1ccc(OCCCCCCCCOCCCCNc2ccc3c(c2)C(=O)N(C2CCC(=O)NC2=O)C3=O)cc1)c1ccc(OCc2ccnc(NS(=O)(=O)C3CC3)n2)cc1 (stereo not shown) [Example 50]
11 to 100 | Cc1cncc(Oc2ccc(C(C)(C)c3ccc(O[C@H]4C[C@@H](Nc5ccc6c(c5)C(=O)N(C5CCC(=O)NC5=O)C6=O)C4)cc3)cc2)n1 (stereo partly shown) [Example 537]
11 to 100 | CN(C)[C@@H]1CCCN(c2nccc(COc3ccc(C(C)(C)c4ccc(O[C@H]5C[C@@H](Nc6ccc7c(c6)C(=O)N(C6CCC(=O)NC6=O)C7=O)C5)cc4)cc3)n2)C1 (stereo partly shown) [Example 402]

Same assay, conditions: AR-v7 degradation in 22RV1 cells, 48 h, numeric values

Molecule | DC50 [nM]
CC(C)(c1ccc(OCCCCCCCCOCCCCNc2ccc3c(c2)C(=O)N(C2CCC(=O)NC2=O)C3=O)cc1)c1ccc(OCc2cncc(NS(C)(=O)=O)n2)cc1 (stereo not shown) [Example 31, N-(6-((4-(2-(4-((8-(4-((2-(2,6-dioxopiperidin-3-yl)-1,3-dioxoisoindolin-5-yl)amino)butoxy)octyl)oxy)phenyl)propan-2-yl)phenoxy)methyl)pyrazin-2-yl)methanesulfonamide] | > 10000
CC(O)c1nccc(COc2ccc(C(C)(C)c3ccc(OCCCCCCCCOCCN4CCN(c5ccc6c(c5)C(=O)N(C5CCC(=O)NC5=O)C6=O)CC4)cc3)cc2)n1 (stereo not shown) [Example 300] | > 10000
CC(C)(c1ccc(OCCCCCCCCOCCCCNc2ccc3c(c2)C(=O)N(C2CCC(=O)NC2=O)C3=O)cc1)c1ccc(OCc2nccc(NS(C)(=O)=O)n2)cc1 (stereo not shown) [Example 32, N-(2-((4-(2-(4-((8-(4-((2-(2,6-dioxopiperidin-3-yl)-1,3-dioxoisoindolin-5-yl)amino)butoxy)octyl)oxy)phenyl)propan-2-yl)phenoxy)methyl)pyrimidin-4-yl)methanesulfonamide] | > 10000
